Experimental findings from patent US5245034A, “Compound having vessel smooth muscle relaxation activity” (Hidaka; Kiroyoshi, priority 1988, dated 1993) are described below.

Structures can show the parent of a compound that is named as a salt.

The first test deals with superior mesenteric artery (contracted by potassium chloride). Kind of test: Vessel Smooth Muscle Relaxation Action (V.R.). As to conditions: Oryctolagus cuniculus; concentration relaxing KCl-contracted strain to 50%; cumulative administration; read-out: V.R. (ED50). Type of test: cell-based, rabbit. From the text: The specimen was suspended by loading a strain in Krebs-Henseleit solution through which an oxygen gas containing 5% carbon dioxide was bubbled. The specimen was contracted by adding potassium chloride to maintain a predetermined strain. Thereafter, a test compound was cumulatively administrated.
With `CC(C=Cc1cccs1)NCCNS(=O)(=O)c1cccc2cnccc12` (stereo not shown) [Example 164, N-{2-[1-Methyl-3-(2-Thienyl)-2-Procenylamino]ethyl}-5-Isoquinolinesulfonamide], the EC50 is 4.1 µM.
Consider `CN(C(Cc1ccc(O)cc1)CN1CCN(c2ccccn2)CC1)S(=O)(=O)c1cccc2cnccc12` (stereo not shown) [Example 46, N-{1-(p-hydroxybenzyl)-2-[4-(2-pyridyl)piperazinyl]ethyl}-N-methyl-5-isoquinolinesulfonamide], for which the EC50 is 4 µM.
For `COc1ccc(N2CCN(CC(Cc3ccc(NS(=O)(=O)c4cccc5cnccc45)cc3)NS(=O)(=O)c3cccc4cnccc34)CC2)cc1` (stereo not shown) [Example 130, N-{1-[p-(5-isoquinolinesulfonylaminobenzyl)]-2-[4-(p-methoxyphenyl]piperazinyl]ethyl}-5-isoquinolinesulfonamide], the EC50 turned out to be 13 µM.
The same measure, in the same setting: in the case of `Cc1ccc(COC2CCN(CC(Cc3ccc(OS(=O)(=O)c4cccc5cnccc45)cc3)NS(=O)(=O)c3cccc4cnccc34)CC2)cc1` (stereo not shown) [Example 84] it was 43 µM.
Regarding `O=C(OCc1ccccc1)N1CCCN(CC(Cc2ccc(O)cc2)NS(=O)(=O)c2cccc3cnccc23)CC1` (stereo not shown) [Example 116, N-{2-(4-benzyloxycarbonylhomopiperazinyl)-1-(p-hydroxybenzyl)ethyl}-5-isoquinolinesulfonamide], the EC50 was found to be 1.5 µM.
Same read-out and setting: in the case of `CN(C(Cc1ccc(OS(=O)(=O)c2cccc3cnccc23)cc1)CN1CCN(c2ccccn2)CC1)S(=O)(=O)c1cccc2cnccc12` (stereo not shown) [Example 45, N-{1-[p-(5-isoquinolinesulfonyloxy)benzyl]-2-[4-(2-pyridyl)piperazinyl]ethyl}-N-methyl-5-isoquinolinesulfonamide] it was 7.5 µM.
On the same count and under the same terms, in the case of `COc1cc(C=CCNCCNS(=O)(=O)c2cccc3cnccc23)cc(OC)c1OC` [Example 185, N-[2-(3,4,5-Trimethoxycinnamylamino)ethyl]-5-Isoquinolinesulfonamide] it was 0.21 µM; in that of `CN(CC=Cc1ccc(Cl)cc1)CCNS(=O)(=O)c1cccc2cnccc12` [Example 190, N-[2-(4-Chloro-N-Methylcinnamylamino)ethyl]-5-Isoquinolinesulfonamide], 0.19 µM; in that of `CN(C(Cc1ccccc1)CN1CCN(c2ccccc2)CC1)S(=O)(=O)c1cccc2cnccc12` (stereo not shown) [Example 43, N-[1-benzyl-2-(4-phenylpiperazinyl)ethyl]-N-methyl-5-isoquinolinesulfonamide], 0.36 µM.
The same measure, in the same setting: in the case of `CN(C(Cc1ccc(OS(=O)(=O)c2cccc3cnccc23)cc1)CN1CCCN(c2ccccc2)CC1)S(=O)(=O)c1cccc2cnccc12` (stereo not shown) [Example 81, N-{1-[p-(5-isoquinolinesulfonyloxy)benzyl]-2-(4-phenylhomopiperazinyl)ethyl}-N-methyl-5-isoquinolinesulfonamide] it was 1.7 µM; in that of `CC(C=Cc1ccc2c(c1)OCO2)NCCNS(=O)(=O)c1cccc2cnccc12` (stereo not shown) [Example 161], 4.7 µM; in that of `CN(C(Cc1ccc(O)cc1)CN1CCN(S(=O)(=O)Cc2ccccc2)CC1)S(=O)(=O)c1cccc2cnccc12` (stereo not shown) [Example 76, N-[2-(4-benzylsulfonylpiperazinyl)-1-(p-hydroxybenzyl)ethyl]-N-methyl-5-isoquinolinesulfonamide], 2.9 µM.
Consider `COc1ccc(N2CCN(CC(Cc3ccc(OS(=O)(=O)c4cccc5cnccc45)cc3)N(C)S(=O)(=O)c3cccc4cnccc34)CC2)cc1` (stereo not shown) [Example 53, N-{1-[p-(5-isoquinolinesulfonyloxy)benzyl]-2-[4-(p-methoxyphenyl)piperazinyl]ethyl}-N-methyl-5-isoquinolinesulfonamide], for which the EC50 was 1.3 µM.
Still for that read-out and setting: the same measure for `CC(=O)Oc1ccc(CC(CN2CCC(OC(C)=O)CC2)N(C)S(=O)(=O)c2cccc3cnccc23)cc1` (stereo not shown) [Example 102, N-[1-(P-Acetoxybenzyl)-2-(4-Acetoxypiperidino)Ethyl]-N-Methyl-5-Isoquinolinesulfonamide]: 24 µM; for `COCCOCOc1ccc(C=CCNCCNS(=O)(=O)c2cccc3cnccc23)cc1` [Example 182, N-{2-[4-(2-Methoxyethoxy)Methoxycinnamylamino]Ethyl}-5-Isoquinolinesulfonamide]: 17 µM.
On the same count and under the same terms, in the case of `CN(C(Cc1ccc(O)cc1)CN1CCN(S(=O)(=O)c2cccc3cnccc23)CC1)S(=O)(=O)c1cccc2cnccc12` (stereo not shown) [Example 77, N-{1-(p-hydroxybenzyl]-2-[4-(5-isoquinolinesulfonyl)piperazinyl]ethyl}-N-methyl-5-isoquinolinesulfonamide] it was 1.4 µM; in that of `O=C([C@H](Cc1ccc(O)cc1)NS(=O)(=O)c1cccc2cnccc12)N1CCN(CCCc2ccccc2)CC1` [Example 33, 1-[N-(5-Isoquinolinesulfonyl)Tyrosyl]-4-(3-Phenylpropyl)Piperazine], 21 µM; in that of `CN(C(Cc1ccc(O)cc1)CN1CCN(c2ncccn2)CC1)S(=O)(=O)c1cccc2cnccc12` (stereo not shown) [Example 42, N-{1-(p-hydroxybenzyl)-2-[4-(2-pyrimidyl)piperazinyl]ethyl}-N-methyl-5-isoquinolinesulfonamide], 6.2 µM.
Same read-out and setting: the same measure for `CN(C(Cc1ccc(O)cc1)CN1CCC(O)CC1)S(=O)(=O)c1cccc2cnccc12` (stereo not shown) [Example 100]: 95 µM; for `COc1ccc(N2CCN(CC(Cc3ccc(O)cc3)NS(=O)(=O)c3cccc4cnccc34)CC2)cc1` (stereo not shown) [Example 55, N-{1-(p-hydroxybenzyl)-2-[4-(p-methoxyphenyl)piperazinyl]ethyl}-5-isoquinolinesulfonamide]: 8.6 µM.
On to `CC(C=Cc1ccncc1)NCCNS(=O)(=O)c1cccc2cnccc12` (stereo not shown) [Example 163, N-{2-[1-Methyl-3-(4-Pyridyl)-2-Propenylamino]ethyl}-5-Isoquinolinesulfonylamide], for which the EC50 amounted to 31 µM.
The same measure, in the same setting: the same measure for `CN(C(Cc1ccc(OS(=O)(=O)c2cccc3cnccc23)cc1)CN1CCN(c2ccccc2)CC1)S(=O)(=O)c1cccc2cnccc12` (stereo not shown) [Example 35]: 6.9 µM; for `CN(C(Cc1ccc(O)cc1)CN1CCN(c2cccc(Cl)c2)CC1)S(=O)(=O)c1cccc2cnccc12` (stereo not shown) [Example 47, N-{2-[4-(m-chlorophenyl)piperazinyl]-1-(p-hydroxybenzyl)ethyl}-N-methyl-5-isoquinolinesulfonamide]: 0.39 µM.
With `CN(C(Cc1ccc(O)cc1)CN1CCN(C(=O)OCc2ccccc2)CC1)S(=O)(=O)c1cccc2ccccc12` (stereo not drawn) [Example 79, N-[2-(4-benzyloxycarbonylpiperazinyl)-1-(p-hydroxybenzyl)ethyl]-N-methyl-α-naphtharenesulfonamide], the EC50 came out at 5.5 µM.
Same read-out and setting: in the case of `CC(C=Cc1ccc(O)cc1)NCCNS(=O)(=O)c1cccc2cnccc12` (stereo not shown) [Example 170] it was 5.2 µM.
For `CN(C(Cc1ccc(O)c(O)c1)CN1CCN(c2ccccc2)CC1)S(=O)(=O)c1cccc2cnccc12` (stereo not shown) [Example 7, N-{1-[(3,4-Dihydroxyphenyl)Methyl]-2-(4-Phenylpiperazinyl)Ethyl}-N-Methyl-Isoquinoline Sulfonamide], the EC50 is 1.6 µM.
On the same count and under the same terms, in the case of `O=S(=O)(NCCN(CC#Cc1ccc(Cl)cc1)CC#Cc1ccc(Cl)cc1)c1cccc2cnccc12` [Example 189-II, N-{2-[Bis-(3-((4-Chlorophenyl))-2-Propynyl)Amino]Ethyl}-5-Isoquinolinesulfonamide] it was 0.2 µM.
Consider `COc1ccc(CC(NS(=O)(=O)c2cccc3cnccc23)C(=O)N2CCCN(C(=O)Cc3ccccc3)CC2)cc1` (stereo not shown) [Example 120, 1-[N-(5-Isoquinolinesulfonyl)-O-Methyl]Tyrosyl-4-Phenylacetylhomopiperazine], for which the EC50 was found to be 19 ± 3 µM.
Same read-out and setting: the same measure for `O=S(=O)(NC(Cc1cnc[nH]1)CN1CCN(c2ccccc2)CC1)c1cccc2cnccc12` (stereo not shown) [Example 2, N-[1-(Imidazol-4(5)-Yl-Methyl)-2-(4-Phenylpiperazinyl)Ethyl]-5-IsoquinolineSulfonamide]: 47 µM; for `COc1ccc(CC(CN2CCN(c3ccccc3)CC2)N(C)S(=O)(=O)c2cccc3cnccc23)cc1` (stereo not shown) [Example 38, N-[1-(P-Methoxybenzyl)-2-(4-Phenylpiperazinyl)Ethyl]-N-Methyl-5-Isoquinolinesulfonamide]: 8.1 µM.
Still for that read-out and setting: in the case of `O=S(=O)(NCCCNCC=Cc1ccccc1)c1cccc2cnccc12` [Example 188, N-(3-Cinnamylaminopropyl)-5-Isoquinolinesulfonamide] it was 4 µM; in that of `O=S(=O)(NCCNCC=Cc1ccc(O)cc1)c1cccc2cnccc12` [Example 183, N-[2-(4-Hydroxycinnamylamino)ethyl]-5-Isoquinolinesulfonamide], 2.8 µM; in that of `COc1ccccc1N1CCN(CC(Cc2ccc(O)cc2)N(C)S(=O)(=O)c2cccc3cnccc23)CC1` (stereo not shown) [Example 56, N-{1-(p-hydroxybenzyl)-2-[4-(2-methoxyphenyl)piperazinyl]ethyl}-N-methyl-5-isoquinolinesulfonamide], 1.2 µM.
The same measure, in the same setting: the same measure for `COc1ccc(N2CCN(CC(Cc3ccc(O)cc3)N(C)S(=O)(=O)c3cccc4cnccc34)CC2)cc1` (stereo not shown) [Example 54, N-{1-(p-hydroxybenzyl)-2-[4-(p-methoxyphenyl)piperazinyl]ethyl}-N-methyl-5-isoquinolinesulfonamide]: 1.7 µM; for `CC(C=Cc1ccccc1)NCCNS(=O)(=O)c1cccc2cnccc12` (stereo not drawn) [Example 202, N-[2-(α-Methylcinnamylamino)Ethyl]-5-Isoquinolinesulfonamide 1/2 Fumarate]: 1.3 µM.
As for `CN(C(Cc1ccc(OS(=O)(=O)c2cccc3cnccc23)cc1)CN1CCN(c2ccc(F)cc2)CC1)S(=O)(=O)c1cccc2cnccc12` (stereo not shown) [Example 49], the EC50 came to 0.92 µM.

Staying with this test, now noted: concentration relaxing KCl-contracted strain to 50%; cumulative administration; read-out: V.R. (ED50).
Regarding `O=S(=O)(NC(Cc1ccc(O)cc1)CN1CCN(CCCc2ccccc2)CC1)c1cccc2cnccc12` (stereo not shown) [Example 69, N-{1-(p-hydroxybenzyl)-2-[4-(3-phenylpropyl)piperazinyl]ethyl}-5-isoquinolinesulfonamide], the EC50 turned out to be 14 µM.
